# According to patent US20080009418A1, “Selective Inhibitors” (Alchemia LTD., priority 2004, published 2008):
# Columns and labels:
# Human δ-opioid (DOP) = molecular target: T1, Human δ-opioid (DOP) (Homo sapiens, UniProt P41143); experiment: Radioligand binding, human δ-opioid (DOP) membranes, FlashPlate, [3H]-Bremazocine; conditions: compound at 10 μM, [3H]-Bremazocine
# T1 construct: purchased Perkin Elmer Biosignal
# How it was run: (§1)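 Cloned human receptor membranes were coated onto FlashPlate wells and incubated with radioligand and compound (added from a 0.5 mM DMSO daughter plate) for 1 hour at room temperature in the dark. Scintillation counting gave percent inhibition, with DMSO defining total and reference ligand defining non-specific binding.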
# Human κ-Opioid (KOP) = molecular target: T2, Human κ-Opioid (KOP) (Homo sapiens, UniProt P41145); experiment: Radioligand binding, human κ-opioid (KOP) membranes, filtration, [3H]-Diprenorphine; conditions: compound at 10 μM, [3H]-Diprenorphine
# T2 construct: purchased Perkin Elmer Biosignal
# T2 sequence (P41145 whole entry): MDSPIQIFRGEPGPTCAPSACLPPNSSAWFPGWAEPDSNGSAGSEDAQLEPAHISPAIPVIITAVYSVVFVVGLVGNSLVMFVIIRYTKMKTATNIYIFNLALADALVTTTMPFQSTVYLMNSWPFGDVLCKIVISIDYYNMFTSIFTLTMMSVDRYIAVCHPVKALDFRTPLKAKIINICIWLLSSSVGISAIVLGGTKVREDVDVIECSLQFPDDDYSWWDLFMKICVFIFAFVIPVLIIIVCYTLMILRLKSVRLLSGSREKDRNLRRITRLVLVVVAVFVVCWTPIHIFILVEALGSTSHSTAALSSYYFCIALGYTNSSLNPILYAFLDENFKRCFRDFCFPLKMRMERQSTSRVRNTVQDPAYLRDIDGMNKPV
# How it was run: (§2)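 Filtration binding on cloned human receptor membranes (1 Unit/well), [125I]-Substance P for NK1 and [3H]-Diprenorphine for KOP, 1 h at room temperature. Filters PEI-presoaked, washed with cold 50 mM Tris-HCl pH 7.4, counted by scintillation; percent inhibition calculated, reference ligand defining non-specific binding.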
# Human Melanocortin (MC3) = molecular target: T3, Human Melanocortin (MC3) (Homo sapiens, UniProt P41968); experiment: Radioligand binding, human melanocortin MC3 membranes, FlashPlate, [125I]-NDP-αMSH; conditions: compound at 10 μM, [125I]-NDP-αMSH
# T3 construct: purchased Perkin Elmer Biosignal
# T3 sequence (P41968 whole entry): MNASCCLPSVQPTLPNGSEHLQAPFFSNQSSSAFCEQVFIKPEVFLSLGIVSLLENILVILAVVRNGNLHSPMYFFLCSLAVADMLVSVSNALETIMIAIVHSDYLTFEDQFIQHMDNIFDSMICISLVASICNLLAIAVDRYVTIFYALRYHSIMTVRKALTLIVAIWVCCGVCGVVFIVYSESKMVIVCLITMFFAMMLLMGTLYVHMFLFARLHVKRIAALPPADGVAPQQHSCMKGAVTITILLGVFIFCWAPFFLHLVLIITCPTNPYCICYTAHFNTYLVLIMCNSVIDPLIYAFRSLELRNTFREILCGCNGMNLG
# How it was run: as §1
# Human Melanocortin (MC4) = molecular target: T4, Human Melanocortin (MC4) (Homo sapiens, UniProt P32245); experiment: Radioligand binding, human melanocortin MC4 membranes, FlashPlate, [125I]-NDP-αMSH; conditions: compound at 10 μM, [125I]-NDP-αMSH
# T4 construct: purchased Perkin Elmer Biosignal
# T4 sequence (P32245 whole entry): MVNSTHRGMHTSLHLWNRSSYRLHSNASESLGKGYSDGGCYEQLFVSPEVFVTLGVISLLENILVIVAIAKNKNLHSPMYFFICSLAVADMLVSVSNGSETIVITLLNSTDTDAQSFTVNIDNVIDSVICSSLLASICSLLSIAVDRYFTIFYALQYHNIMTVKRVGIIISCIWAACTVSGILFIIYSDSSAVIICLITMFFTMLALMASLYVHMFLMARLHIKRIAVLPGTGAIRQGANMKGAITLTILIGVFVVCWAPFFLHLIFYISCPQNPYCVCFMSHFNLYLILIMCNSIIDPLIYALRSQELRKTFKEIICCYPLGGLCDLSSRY
# How it was run: as §1
# Human melanocortin (MC5) = molecular target: T5, Human melanocortin (MC5) (Homo sapiens, UniProt P33032); experiment: Radioligand binding, human melanocortin MC5 membranes, FlashPlate, [125I]-NDP-αMSH; conditions: compound at 10 μM, [125I]-NDP-αMSH
# T5 construct: purchased Perkin Elmer Biosignal
# T5 sequence (P33032 whole entry): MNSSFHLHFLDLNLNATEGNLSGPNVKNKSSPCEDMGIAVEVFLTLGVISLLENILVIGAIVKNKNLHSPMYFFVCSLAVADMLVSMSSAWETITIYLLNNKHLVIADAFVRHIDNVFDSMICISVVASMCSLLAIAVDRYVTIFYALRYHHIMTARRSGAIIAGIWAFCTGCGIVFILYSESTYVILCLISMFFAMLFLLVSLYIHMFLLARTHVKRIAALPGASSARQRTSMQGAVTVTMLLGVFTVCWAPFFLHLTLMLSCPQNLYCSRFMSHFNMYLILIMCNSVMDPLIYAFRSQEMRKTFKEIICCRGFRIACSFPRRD
# How it was run: as §1
# [1] = molecular target: T6, Human melanin-concentrating hormone (MCH1) (Homo sapiens, UniProt Q99705); experiment: Radioligand binding, human melanin-concentrating hormone MCH1 membranes, FlashPlate, [125I]-S36057; conditions: compound at 10 μM
# T6 construct: purchased Perkin Elmer Biosignal
# T6 sequence (Q99705 whole entry): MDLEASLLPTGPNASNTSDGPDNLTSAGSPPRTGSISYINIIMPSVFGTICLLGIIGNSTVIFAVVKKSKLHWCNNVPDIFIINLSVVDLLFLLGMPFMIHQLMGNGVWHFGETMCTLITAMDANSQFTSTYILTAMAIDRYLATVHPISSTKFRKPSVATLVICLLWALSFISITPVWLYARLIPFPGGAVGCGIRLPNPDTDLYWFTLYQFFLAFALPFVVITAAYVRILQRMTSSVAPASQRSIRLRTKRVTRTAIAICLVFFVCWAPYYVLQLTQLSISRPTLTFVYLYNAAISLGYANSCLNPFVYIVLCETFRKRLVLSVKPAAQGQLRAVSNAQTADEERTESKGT
# How it was run: as §1
# Human μ-opioid (MOP) = molecular target: T7, Human μ-opioid (MOP) (Homo sapiens, UniProt P35372); experiment: Radioligand binding, human μ-opioid (MOP) membranes, FlashPlate, [3H]-Naloxone; conditions: compound at 10 μM, [3H]-Naloxone
# T7 construct: purchased Perkin Elmer Biosignal
# T7 sequence (P35372 whole entry): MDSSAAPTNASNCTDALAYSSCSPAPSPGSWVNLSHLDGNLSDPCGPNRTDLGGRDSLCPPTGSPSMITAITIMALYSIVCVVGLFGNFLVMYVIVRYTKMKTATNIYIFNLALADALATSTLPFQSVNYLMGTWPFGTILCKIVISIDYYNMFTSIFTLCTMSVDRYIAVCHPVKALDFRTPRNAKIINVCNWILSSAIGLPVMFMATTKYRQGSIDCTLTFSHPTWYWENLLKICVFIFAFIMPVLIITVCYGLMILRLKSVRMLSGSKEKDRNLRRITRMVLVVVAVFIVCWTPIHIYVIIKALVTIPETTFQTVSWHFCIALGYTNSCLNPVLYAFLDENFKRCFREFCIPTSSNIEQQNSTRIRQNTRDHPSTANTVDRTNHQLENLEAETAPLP
# How it was run: as §1
# Human neurokinin (NK1) = molecular target: T8, Human neurokinin (NK1) (Homo sapiens, UniProt P25103); experiment: Radioligand binding, human neurokinin NK1 membranes, filtration, [125I]-Substance P; conditions: compound at 10 μM, [125I]-Substance P
# T8 construct: purchased Perkin Elmer Biosignal
# T8 sequence (P25103 whole entry): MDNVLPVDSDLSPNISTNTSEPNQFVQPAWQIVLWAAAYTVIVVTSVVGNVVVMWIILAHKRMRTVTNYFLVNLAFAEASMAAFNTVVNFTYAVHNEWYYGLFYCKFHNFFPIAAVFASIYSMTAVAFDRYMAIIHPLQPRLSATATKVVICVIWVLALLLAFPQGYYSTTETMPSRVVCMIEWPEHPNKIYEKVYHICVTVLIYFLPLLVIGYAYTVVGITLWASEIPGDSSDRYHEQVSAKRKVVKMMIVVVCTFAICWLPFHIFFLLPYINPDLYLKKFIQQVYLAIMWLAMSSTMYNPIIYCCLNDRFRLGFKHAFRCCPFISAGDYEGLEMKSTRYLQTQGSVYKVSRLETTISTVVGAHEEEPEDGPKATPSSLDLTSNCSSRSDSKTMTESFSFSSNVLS
# How it was run: as §2
# [2] = molecular target: T9, Human neuropeptide Y (NPY-Y1) (Homo sapiens, UniProt P25929); experiment: Radioligand binding, human neuropeptide Y NPY-Y1 membranes, FlashPlate, [125I]-PYY; conditions: compound at 10 μM, [125I]-PYY
# T9 construct: purchased Perkin Elmer Biosignal
# T9 sequence (P25929 1-384): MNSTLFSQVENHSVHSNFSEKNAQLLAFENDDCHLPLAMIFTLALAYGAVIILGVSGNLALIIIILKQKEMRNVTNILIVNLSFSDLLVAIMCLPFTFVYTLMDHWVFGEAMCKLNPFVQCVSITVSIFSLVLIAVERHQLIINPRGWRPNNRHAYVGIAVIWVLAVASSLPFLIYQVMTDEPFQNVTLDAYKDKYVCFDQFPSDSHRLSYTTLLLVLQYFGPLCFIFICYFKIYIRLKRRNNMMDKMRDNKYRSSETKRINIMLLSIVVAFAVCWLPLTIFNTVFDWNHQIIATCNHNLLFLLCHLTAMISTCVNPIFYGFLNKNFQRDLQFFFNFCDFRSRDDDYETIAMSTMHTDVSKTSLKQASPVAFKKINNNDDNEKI
# How it was run: as §1
# Human opioid (ORL1) = molecular target: T10, Human opioid (ORL1) (Homo sapiens, UniProt P41146); experiment: Radioligand binding, human opioid ORL1 membranes, FlashPlate, [125I]-Nociceptin; conditions: compound at 10 μM, [125I]-Nociceptin
# T10 construct: purchased Perkin Elmer Biosignal
# T10 sequence (P41146 whole entry): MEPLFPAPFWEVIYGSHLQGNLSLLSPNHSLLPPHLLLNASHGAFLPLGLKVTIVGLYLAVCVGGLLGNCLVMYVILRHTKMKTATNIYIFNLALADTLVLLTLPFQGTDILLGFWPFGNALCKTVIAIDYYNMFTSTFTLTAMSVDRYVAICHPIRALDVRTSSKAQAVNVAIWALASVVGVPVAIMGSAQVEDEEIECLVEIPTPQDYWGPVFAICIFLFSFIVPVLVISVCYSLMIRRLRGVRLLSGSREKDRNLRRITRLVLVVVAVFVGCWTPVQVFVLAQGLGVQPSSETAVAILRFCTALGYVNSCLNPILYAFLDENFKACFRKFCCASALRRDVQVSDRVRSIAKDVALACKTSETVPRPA
# How it was run: as §1
# Mouse urotensin (mUR2) = molecular target: T11, Mouse urotensin (mUR2) (Mus musculus, UniProt Q8VIH9); experiment: Radioligand binding, mouse urotensin mUR2 membranes, FlashPlate, [125I]-Urotensin II; conditions: compound at 10 μM, [125I]-Urotensin II
# T11 construct: purchased Perkin Elmer Biosignal
# T11 sequence (Q8VIH9 1-385): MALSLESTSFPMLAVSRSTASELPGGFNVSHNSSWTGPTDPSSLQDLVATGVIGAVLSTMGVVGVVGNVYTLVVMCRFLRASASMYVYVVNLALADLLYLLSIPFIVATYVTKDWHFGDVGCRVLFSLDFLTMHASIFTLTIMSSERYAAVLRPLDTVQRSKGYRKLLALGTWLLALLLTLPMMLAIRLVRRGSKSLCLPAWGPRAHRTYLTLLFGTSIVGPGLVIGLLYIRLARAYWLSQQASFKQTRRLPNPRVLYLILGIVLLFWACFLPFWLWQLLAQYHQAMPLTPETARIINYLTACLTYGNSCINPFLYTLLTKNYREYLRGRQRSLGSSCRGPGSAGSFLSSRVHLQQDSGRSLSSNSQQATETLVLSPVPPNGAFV
# How it was run: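 Cloned mouse urotensin (mUR2) receptor membranes from Perkin Elmer Biosignal were immobilized in FlashPlate microplates using a proprietary coating. Each well got 19.5 μl buffer, then 0.5 μl of DMSO, reference ligand, or compound. Adding 5 μl of [125I]-Urotensin II, diluted to 5× final concentration in binding buffer, started binding. Plates were sealed with TopSeal-A and incubated 1 hour at room temperature in the dark. Wells were counted for 30 seconds each on a TopCount after a 60-second delay, and percentage inhibition was calculated.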
# T1 sequence (P41143 whole entry): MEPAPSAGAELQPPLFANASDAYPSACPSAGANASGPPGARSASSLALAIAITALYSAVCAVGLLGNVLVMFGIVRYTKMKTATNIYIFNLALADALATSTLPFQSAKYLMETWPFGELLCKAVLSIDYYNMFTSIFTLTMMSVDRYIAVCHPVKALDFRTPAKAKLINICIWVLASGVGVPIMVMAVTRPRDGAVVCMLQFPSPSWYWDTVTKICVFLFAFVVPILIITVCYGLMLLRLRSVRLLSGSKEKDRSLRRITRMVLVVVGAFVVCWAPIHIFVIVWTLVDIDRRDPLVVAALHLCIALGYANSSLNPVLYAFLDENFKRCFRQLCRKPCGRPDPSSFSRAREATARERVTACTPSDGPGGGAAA
structure (smiles),measurement,setting,value
"NCCC(=O)NC1C(OCc2ccc(Cl)cc2)OC(COCc2ccc(Cl)cc2)C(O)C1OCc1ccc2ccccc2c1 (single isomer, unassigned) [compound 481]","A1: inhibition of radioligand binding, human δ-opioid (DOP)",Human δ-opioid (DOP),− (“−” indicates less than 50% inhibition at 10 μM)
same,"A2: inhibition of radioligand binding, human κ-opioid (KOP)",Human κ-Opioid (KOP); 10 µM,+ (“+” indicates greater than 50% inhibition at 10 μM)
same,"A3: inhibition of radioligand binding, human melanocortin (MC3)",Human Melanocortin (MC3),+ (“+” indicates greater than 50% inhibition at 10 μM)
same,"A4: inhibition of radioligand binding, human melanocortin (MC4)",Human Melanocortin (MC4),+ (“+” indicates greater than 50% inhibition at 10 μM)
same,"A5: inhibition of radioligand binding, human melanocortin (MC5)",Human melanocortin (MC5),+ (“+” indicates greater than 50% inhibition at 10 μM)
same,"A6: inhibition of radioligand binding, human melanin-concentrating hormone (MCH1)",[1]; [125I]-S36057,+ (“+” indicates greater than 50% inhibition at 10 μM)
same,"A7: inhibition of radioligand binding, human μ-opioid (MOP)",Human μ-opioid (MOP),− (“−” indicates less than 50% inhibition at 10 μM)
same,"A8: inhibition of radioligand binding, human neurokinin (NK1)",Human neurokinin (NK1),+ (“+” indicates greater than 50% inhibition at 10 μM)
same,"A9: inhibition of radioligand binding, human neuropeptide Y (NPY-Y1)",[2],− (“−” indicates less than 50% inhibition at 10 μM)
same,"A10: inhibition of radioligand binding, human opioid (ORL1)",Human opioid (ORL1),+ (“+” indicates greater than 50% inhibition at 10 μM)
same,"A11: inhibition of radioligand binding, mouse urotensin (mUR2)",Mouse urotensin (mUR2),− (“−” indicates less than 50% inhibition at 10 μM)
NCCC(=O)N[C@H]1C(OCc2ccc3ccccc3c2)O[C@H](COCc2ccc(Cl)cc2)[C@@H](O)[C@@H]1OCc1ccc2ccccc2c1 (stereo partly shown) [compound 446],A1: inhibition of radioligand binding,Human δ-opioid (DOP); human DOP membranes,− (“−” indicates less than 50% inhibition at 10 μM)
same,A2: inhibition of radioligand binding,Human κ-Opioid (KOP); human KOP membranes,− (“−” indicates less than 50% inhibition at 10 μM)
same,A3: inhibition of radioligand binding,"Human Melanocortin (MC3); human MC3 membranes, 10 µM",− (“−” indicates less than 50% inhibition at 10 μM)
same,A4: inhibition of radioligand binding,"Human Melanocortin (MC4); human MC4 membranes, 10 µM",− (“−” indicates less than 50% inhibition at 10 μM)
same,A5: inhibition of radioligand binding,Human melanocortin (MC5); human MC5 membranes,+ (“+” indicates greater than 50% inhibition at 10 μM)
same,A6: inhibition of radioligand binding,"[1]; [125I]-S36057, human MCH1 membranes, 10 µM",− (“−” indicates less than 50% inhibition at 10 μM)
same,A7: inhibition of radioligand binding,Human μ-opioid (MOP); human MOP membranes,− (“−” indicates less than 50% inhibition at 10 μM)
same,A8: inhibition of radioligand binding,Human neurokinin (NK1); human NK1 membranes,+ (“+” indicates greater than 50% inhibition at 10 μM)
same,A9: inhibition of radioligand binding,[2]; human NPY-Y1 membranes,− (“−” indicates less than 50% inhibition at 10 μM)
same,A10: inhibition of radioligand binding,Human opioid (ORL1); human ORL1 membranes,− (“−” indicates less than 50% inhibition at 10 μM)
same,A11: inhibition of radioligand binding,Mouse urotensin (mUR2); mouse mUR2 membranes,− (“−” indicates less than 50% inhibition at 10 μM)
"NCCCC(=O)NC1C(OCc2ccc(Cl)cc2)OC(COCc2ccc3ccccc3c2)C(O)C1OCc1ccccc1 (single isomer, unassigned) [compound 502]","A1: inhibition of radioligand binding, human δ-opioid (DOP)",Human δ-opioid (DOP),− (“−” indicates less than 50% inhibition at 10 μM)
same,"A2: inhibition of radioligand binding, human κ-opioid (KOP)",Human κ-Opioid (KOP),− (“−” indicates less than 50% inhibition at 10 μM)
same,"A3: inhibition of radioligand binding, human melanocortin (MC3)",Human Melanocortin (MC3); 10 µM,− (“−” indicates less than 50% inhibition at 10 μM)
same,"A4: inhibition of radioligand binding, human melanocortin (MC4)",Human Melanocortin (MC4),+ (“+” indicates greater than 50% inhibition at 10 μM)
same,"A5: inhibition of radioligand binding, human melanocortin (MC5)",Human melanocortin (MC5),+ (“+” indicates greater than 50% inhibition at 10 μM)
same,"A6: inhibition of radioligand binding, human melanin-concentrating hormone (MCH1)","[1]; [125I]-S36057, 10 µM",+ (“+” indicates greater than 50% inhibition at 10 μM)
same,"A7: inhibition of radioligand binding, human μ-opioid (MOP)",Human μ-opioid (MOP); 10 µM,+ (“+” indicates greater than 50% inhibition at 10 μM)
same,"A8: inhibition of radioligand binding, human neurokinin (NK1)",Human neurokinin (NK1),+ (“+” indicates greater than 50% inhibition at 10 μM)
same,"A9: inhibition of radioligand binding, human neuropeptide Y (NPY-Y1)",[2],− (“−” indicates less than 50% inhibition at 10 μM)
same,"A10: inhibition of radioligand binding, human opioid (ORL1)",Human opioid (ORL1),+ (“+” indicates greater than 50% inhibition at 10 μM)
same,"A11: inhibition of radioligand binding, mouse urotensin (mUR2)",Mouse urotensin (mUR2),− (“−” indicates less than 50% inhibition at 10 μM)
CSC1OC(COCc2ccc3ccccc3c2)C(O)C(OCc2ccccc2)C1NC(=O)CCNC(=N)N (stereo not shown) [compound 262],A1: inhibition of radioligand binding,Human δ-opioid (DOP); FlashPlate,− (“−” indicates less than 50% inhibition at 10 μM)
same,A2: inhibition of radioligand binding,Human κ-Opioid (KOP); filtration,− (“−” indicates less than 50% inhibition at 10 μM)
same,A3: inhibition of radioligand binding,Human Melanocortin (MC3); FlashPlate,− (“−” indicates less than 50% inhibition at 10 μM)
same,A4: inhibition of radioligand binding,Human Melanocortin (MC4); FlashPlate,− (“−” indicates less than 50% inhibition at 10 μM)
same,A5: inhibition of radioligand binding,Human melanocortin (MC5); FlashPlate,+ (“+” indicates greater than 50% inhibition at 10 μM)
same,A6: inhibition of radioligand binding,"[1]; [125I]-S36057, FlashPlate",− (“−” indicates less than 50% inhibition at 10 μM)
same,A7: inhibition of radioligand binding,Human μ-opioid (MOP); FlashPlate,− (“−” indicates less than 50% inhibition at 10 μM)
same,A8: inhibition of radioligand binding,Human neurokinin (NK1); filtration,+ (“+” indicates greater than 50% inhibition at 10 μM)
same,A9: inhibition of radioligand binding,[2]; FlashPlate,− (“−” indicates less than 50% inhibition at 10 μM)
same,A10: inhibition of radioligand binding,Human opioid (ORL1); FlashPlate,− (“−” indicates less than 50% inhibition at 10 μM)
same,A11: inhibition of radioligand binding,Mouse urotensin (mUR2); FlashPlate,− (“−” indicates less than 50% inhibition at 10 μM)
CO[C@H]1[C@H](O)[C@@H](COCc2ccc(-c3ccccc3)cc2)OC(OCCc2ccccc2)[C@@H]1NC(=O)CCCNC(=N)N (stereo partly shown) [compound 112],"A1 radioligand binding, percentage inhibition",Human δ-opioid (DOP),− (“−” indicates less than 50% inhibition at 10 μM)
same,"A2 radioligand binding, percentage inhibition",Human κ-Opioid (KOP),− (“−” indicates less than 50% inhibition at 10 μM)
same,"A3 radioligand binding, percentage inhibition",Human Melanocortin (MC3),+ (“+” indicates greater than 50% inhibition at 10 μM)
same,"A4 radioligand binding, percentage inhibition",Human Melanocortin (MC4),+ (“+” indicates greater than 50% inhibition at 10 μM)
same,"A5 radioligand binding, percentage inhibition",Human melanocortin (MC5),+ (“+” indicates greater than 50% inhibition at 10 μM)
same,"A6 radioligand binding, percentage inhibition",[1]; [125I]-S36057,− (“−” indicates less than 50% inhibition at 10 μM)
same,"A7 radioligand binding, percentage inhibition",Human μ-opioid (MOP),− (“−” indicates less than 50% inhibition at 10 μM)
same,"A8 radioligand binding, percentage inhibition",Human neurokinin (NK1),+ (“+” indicates greater than 50% inhibition at 10 μM)
same,"A9 radioligand binding, percentage inhibition",[2],− (“−” indicates less than 50% inhibition at 10 μM)
same,"A10 radioligand binding, percentage inhibition",Human opioid (ORL1),− (“−” indicates less than 50% inhibition at 10 μM)
same,"A11 radioligand binding, percentage inhibition",Mouse urotensin (mUR2),− (“−” indicates less than 50% inhibition at 10 μM)
